Experimental data from patent US20210337802A1, “COMPOSITION AND PROCESS FOR RECONDITIONING RESPIRATORS AND OTHER PERSONAL PROTECTIVE EQUIPMENT” (Tygrus, LLC, priority 2020, published 2021).

Tests used:
Format in all cases: physicochemical
[1] = Conductivity of diluted samples (EPA method 120.1); conditions: samples diluted with de-ionized water; Example materials at 1% by volume in water
Source text: In order to test for conductivity the samples are each diluted with de-ionized water for analysis. The testing is completed using a Mettler Toledo Seven Excellence Meter with a conductivity probe following EPA method 120.1.

[2] = Freeze point by DSC (USP <891>); conditions: Example materials at 1% by volume in water
Procedure: In order to evaluate freezing point, the samples are analyzed using a TA Instruments Q100 DSC equipped with an RCS-90 cooling system following USP <891>.

[3] = Acidity titration for hydrogen ion content (ASTM D1067 Test Method A); conditions: titrated to pH 8.6; Example materials at 1% by volume in water
Source text: The testing was completed using a Metrohm 826 Titrando equipped with a pH probe.

[4] = Excess hydrogen ion concentration and pH after admixing with water; conditions: 5 ml material in 5 ml deionized and distilled water, standard temperature and pressure
Procedure: The excess hydrogen ion concentration is measured as greater than 15% by volume and the pH of the material is determined to be 1.

In the case of “hydrogen (1+), triaqua-μ3-oxotri sulfate (1:1) [Example I]”, the Conductivity [1] is reported as 551 mS/cm, the “Melting Temperature (freeze point)” value [2] is reported as −9.07 °C and the “Acidity @ pH 8.6” value [3] is reported as 1307.28 meq/L. For the same substance, the pH [4] was 1.
